Reference: article PMC5575463, “The amino‐terminal tail of Hxt11 confers membrane stability to the Hxt2 sugar transporter and improves xylose fermentation in the presence of acetic acid” (Biotechnology and Bioengineering, 2017)
Read-outs that look alike come from different tables or passages of the source.

Columns and labels:
[1] = test system: T1, Chimeric Hxt11/2; test: […] sugar uptake by yeast cells, filtration; assay type: cell-based, Saccharomyces cerevisiae; conditions: labelled compound, mineral medium, strain DS68625
T1 construct: single-chain fusion: Hxt11 residues 1-54 replace Hxt2 residues 1-49, rest is Hxt2; untagged, pRS313-P7T7; expressed in S. cerevisiae DS68625 (hxt1-7, gal2 deleted)

[2] = test system: T1, Chimeric Hxt11/2; test: […] sugar uptake by yeast cells, filtration; assay type: cell-based, Saccharomyces cerevisiae; conditions: labelled compound; 0.5-500 mM xylose, 1 min uptake, mineral medium, strain DS68625; Hxt2 numbering; read-out: K m (mM) / Xylose

Row | Structure (SMILES) | Km ([1]; 0.1-500 mM glucose, 15 s uptake, read-out: K m (mM) / Glucose) | Km [2] | Km ([1]; 0.5-500 mM xylose, 1 min uptake, read-out: K m (mM) / Xylose)
1 | OC[C@H]1OC(O)[C@H](O)[C@@H](O)[C@@H]1O (stereo partly drawn) [D-glucose] | 17.4 ± 3.8 mM | – | –
2 | OC1OC[C@@H](O)[C@H](O)[C@H]1O (stereo partly drawn) [D-xylose] | – | 57.3 ± 5.2 mM | 69 ± 9.1 mM
